# Laboratory results reported in patent US4504580A, “Antibiotics produced by fermentation of a novel strain of Streptomyces hygroscopicus” (Bristol-Myers Company, priority 1983, dated 1985).
# Entries after “also recorded” stand apart in the source; their conditions may differ.
# Columns and labels:
# Proteus mirabilis A9906 = experiment: Experimental systemic infection in mice, P. mirabilis A9906; assay type: in vivo; conditions: Proteus mirabilis, A9906, 96 h, im, single treatment, 4 days, read-out: PD50
# Protocol: (§1) The in vivo activity of Bu-2659A was assessed by experimental systemic infection in mice. The pathogenic bacteria used in the in vivo tests were E. coli Juhl, K. pneumoniae D-11, P. mirabilis A9906, S. aureus Smith and S. pyogenes A20201. Mice were challenged intraperitoneally with approximately 100×LD50 dose of the pathogens in a 5% suspension of hog gastric mucin (American Laboratories, Omaha, Neb.). A single intramuscular treatment with the antibiotic was given immediately after the bacterial challenge. […] Neomycin was comparatively tested as a reference compound. […] In terms of PD50 value Bu-2659A was about one-half as active as neomycin against infections with S. aureus and S. pyogenes.
# Proteus morganii A9553 = experiment: MIC by serial two-fold agar dilution, P. morganii A9553; assay type: cell-based; conditions: Morganella morganii, A9553; Table 7; Mueller-Hinton agar; read-out: MIC
# Method in brief: (§2)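 Inocula, 10^4-diluted overnight broth cultures, are applied via Steer's multi-inoculating device to agar containing serially halved compound concentrations.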
# Escherichia coli Juhl = experiment: Experimental systemic infection in mice, E. coli Juhl; assay type: in vivo; conditions: Escherichia coli, 96 h, im, single treatment, 4 days, read-out: PD50
# Protocol: as §1
# Escherichia coli NIHJ = experiment: MIC by serial two-fold agar dilution, E. coli NIHJ; assay type: cell-based; conditions: Escherichia coli; Table 7; Mueller-Hinton agar; read-out: MIC
# Method in brief: as §2
# Escherichia coli A20732 = experiment: MIC, aminoglycoside-resistant E. coli A20732; assay type: cell-based; conditions: Escherichia coli, A20732; Table 9; inactivating enzyme ANT(2"); Mueller-Hinton agar; read-out: MIC
# Method in brief: as §2
# Escherichia coli A20107 = experiment: MIC, aminoglycoside-resistant E. coli A20107; assay type: cell-based; conditions: Escherichia coli, A20107; Table 9; inactivating enzyme APH(3')-II; Mueller-Hinton agar; read-out: MIC
# Method in brief: as §2
# [1] = tested on: Enterobacter cloacae A20364; experiment: MIC, aminoglycoside-resistant E. cloacae A20364; assay type: cell-based; conditions: Enterobacter cloacae, A20364; Table 9; inactivating enzyme APH(3')-I; Mueller-Hinton agar; read-out: MIC
# Method in brief: as §2
# [2] = tested on: Bacillus subtilis PCI 219; experiment: MIC by serial two-fold agar dilution, B. subtilis PCI 219; assay type: cell-based; conditions: Bacillus subtilis, PCI219; Table 7; Mueller-Hinton agar; read-out: MIC
# Method in brief: as §2
# [3] = tested on: Staphylococcus aureus D136; experiment: MIC by serial two-fold agar dilution, S. aureus D136; assay type: cell-based; conditions: Staphylococcus aureus, D136; Table 7; Mueller-Hinton agar; read-out: MIC
# Method in brief: as §2
# [4] = tested on: Escherichia coli JR66/W677; experiment: MIC, aminoglycoside-resistant E. coli JR66/W677; assay type: cell-based; conditions: Escherichia coli, JR66/W677
# Method in brief: as §2
# Escherichia coli ML 1630 = experiment: MIC, aminoglycoside-resistant E. coli ML 1630; assay type: cell-based; conditions: Escherichia coli, ML1630; Table 9; inactivating enzyme APH(3')-I; Mueller-Hinton agar; read-out: MIC
# Method in brief: as §2
# [5] = tested on: species of Streptococcus and Mycobacterium; experiment: Antibacterial activity (MIC), overall, Streptococcus and Mycobacterium, Table 8; assay type: cell-based
# Protocol: (§3) The minimum inhibitory concentrations (MIC) of Bu-2659A, B, C, D and E were determined for a variety of gram-positive and gram-negative bacteria by the serial two-fold agar dilution method using the Steer's multi-inoculating apparatus. The inoculum was standardized as a 10^4 dilution of an overnight culture of the test organisms in Heart Infusion Broth (Difco). […] Reference antibiotics utilized in these tests included commercially available neomycin as well as its components, neomycins B and C [as used herein, the term "neomycin" means the commercial product containing neomycins B and C at an approximate ratio of 7:3], paromomycin [the commercial product containing >90% of paromomycin I and <10% of paromomycin II] and ribostamycin.
# Micrococcus flavus D12 = experiment: MIC by serial two-fold agar dilution, M. flavus D12; assay type: cell-based; conditions: Micrococcus flavus, D12; Table 7; Mueller-Hinton agar; read-out: MIC
# Method in brief: as §2
# Escherichia coli JR88 = experiment: MIC, aminoglycoside-resistant E. coli JR88; assay type: cell-based; conditions: Escherichia coli, JR88
# Method in brief: as §2
# [6] = tested on: Mycobacterium smegmatis 607; experiment: MIC by serial two-fold agar dilution, M. smegmatis 607; assay type: cell-based; conditions: Mycolicibacterium smegmatis, 607; Table 8; No. 1001 medium; read-out: MIC
# Protocol: as §3
# [7] = tested on: resistant strains which produce APH(3') or AAC(3); experiment: Susceptibility of aminoglycoside resistant organisms (MIC), overall, Table 9; assay type: cell-based; conditions: several resistant strains which produce APH(3') or AAC(3)
# Protocol: as §3
# [8] = tested on: Pseudomonas aeruginosa D15; experiment: MIC by serial two-fold agar dilution, P. aeruginosa D15; assay type: cell-based; conditions: Pseudomonas aeruginosa, D15; Table 7; Mueller-Hinton agar; read-out: MIC
# Method in brief: as §2
# [9] = tested on: Staphylococcus aureus Smith; experiment: MIC by serial two-fold agar dilution, S. aureus Smith; assay type: cell-based; conditions: Staphylococcus aureus; Table 7; Mueller-Hinton agar; read-out: MIC
# Method in brief: as §2
# [10] = tested on: E. coli Juhl, K. pneumoniae D-11, P. mirabilis A9906, S. aureus Smith and S. pyogenes A20201; experiment: Experimental systemic infection in mice, overall; assay type: in vivo
# Protocol: as §1
# [11] = tested on: gram-positive and gram-negative bacteria; experiment: In vitro antibacterial spectra (MIC), overall comparison, Table 7; assay type: cell-based; conditions: Table 7 organisms
# Protocol: as §3
# [12] = tested on: Bacillus brevis IFO 12334; experiment: MIC, aminoglycoside-resistant B. brevis IFO 12334; assay type: cell-based; conditions: Brevibacillus brevis, IFO12334; Table 9; inactivating enzyme ANT (4'); Mueller-Hinton agar; read-out: MIC
# Method in brief: as §2
# [13] = tested on: Escherichia coli NR79/W677; experiment: MIC, aminoglycoside-resistant E. coli NR79/W677; assay type: cell-based; conditions: Escherichia coli, NR79/W677
# Method in brief: as §2
compound,measurement,setting,value
"NC[C@@H]1O[C@H](O[C@H]2[C@@H](O)[C@H](O[C@@H]3[C@@H](O)[C@H](O)C[C@H](N)[C@H]3O[C@H]3O[C@H](CN)[C@@H](O)[C@H](O)[C@H]3N)O[C@@H]2CO)[C@H](N)[C@@H](O)[C@@H]1O [Bu-2659A, 1-deamino-1-hydroxyneomycin B]",ED50,Proteus mirabilis A9906,2.5 mg/kg
same,MIC,Proteus morganii A9553,1.6 µg/mL
same,ED50,Escherichia coli Juhl,3.1 mg/kg
same,MIC,Escherichia coli NIHJ,1.6 µg/mL
same,MIC,Escherichia coli A20732,0.8 µg/mL
same,MIC,Escherichia coli A20107,25 µg/mL
same,MIC,[1],50 µg/mL
same,MIC,[2],0.1 µg/mL
same,MIC,[3],0.8 µg/mL
same,MIC,[4],> 100 µg/mL
same,MIC,Escherichia coli ML 1630,> 100 µg/mL
same,"activity against Streptococcus and Mycobacterium, in words",[5],equivalent activity
same,MIC,Micrococcus flavus D12,6.3 µg/mL
same,MIC,Escherichia coli JR88,1.6 µg/mL
same,MIC,[6],0.4 µg/mL
same,"activity against aminoglycoside-resistant strains, in words",[7],"more active than neomycin, paromomycin and ribostamycin"
same,MIC,[8],3.1 µg/mL
same,MIC,[9],1.6 µg/mL
same,"protection in mice, in words",[10]; five experimental infections,excellent protection
same,"in vivo activity relative to neomycin, in terms of PD50",[10]; infections with S. aureus and S. pyogenes,about one-half
same,"in vivo activity compared with neomycin, in words",[10]; infections with three gram-negative bacteria,comparable to that of neomycin
same,"in vitro antibacterial activity, in words",[11],highest activity among the five Bu-2659 components; also recorded: comparable to that of neomycin; also recorded: substantially the same level of antibacterial activity as neomycin B
same,MIC,[12],> 100 µg/mL
same,MIC,[13],50 µg/mL
